Experimental data reported in PubChem BioAssay (NCI).
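Dose response: 5 concentrations. Exposure: 48 h. Format: 96-well plates. Endpoint: linear interpolation; highest concentration if not reached. TGI denotes the concentration required for complete inhibition of growth.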

Experiments:
Assay in all cases: NCI-60 cell line screen, 48 h
ACHN renal = tested on: ACHN renal
BT-549 breast = tested on: BT-549 breast
CAKI-1 renal = tested on: CAKI-1 renal
COLO 205 colon = tested on: COLO 205 colon
IGROV1 ovarian = tested on: IGROV1 ovarian
K-562 leukemia = tested on: K-562 leukemia
M14 melanoma = tested on: M14 melanoma
MALME-3M melanoma = tested on: MALME-3M melanoma
MDA-MB-435 = tested on: MDA-MB-435
MOLT-4 leukemia = tested on: MOLT-4 leukemia
NCI-H226 lung = tested on: NCI-H226 lung
NCI-H460 lung = tested on: NCI-H460 lung
OVCAR-5 ovarian = tested on: OVCAR-5 ovarian
RPMI-8226 leukemia = tested on: RPMI-8226 leukemia
SK-MEL-28 melanoma = tested on: SK-MEL-28 melanoma
SN12C renal = tested on: SN12C renal
SNB-75 CNS = tested on: SNB-75 CNS
U251 CNS = tested on: U251 CNS
UACC-62 melanoma = tested on: UACC-62 melanoma
SNB-19 CNS = tested on: SNB-19 CNS

## Cn1ccnc1SC(F)(F)c1nc2ccccc2o1
ACHN renal
  TGI: > 100 µM
BT-549 breast
  TGI: > 100 µM
CAKI-1 renal
  TGI: > 100 µM
COLO 205 colon
  TGI: > 100 µM
IGROV1 ovarian
  TGI: > 100 µM
K-562 leukemia
  TGI: > 100 µM
M14 melanoma
  TGI: > 100 µM
MALME-3M melanoma
  TGI: > 100 µM
MDA-MB-435
  TGI: > 100 µM
MOLT-4 leukemia
  TGI: > 100 µM
NCI-H226 lung
  TGI: > 100 µM
NCI-H460 lung
  TGI: > 100 µM
OVCAR-5 ovarian
  TGI: > 100 µM
RPMI-8226 leukemia
  TGI: > 100 µM
SK-MEL-28 melanoma
  TGI: > 100 µM
SN12C renal
  TGI: > 100 µM
SNB-75 CNS
  TGI: > 100 µM
U251 CNS
  TGI: > 100 µM
UACC-62 melanoma
  TGI: > 100 µM

## Cn1c(=O)c2[nH]c(/N=N\n3ccc4ccccc43)nc2n(C)c1=O
ACHN renal
  TGI: > 100 µM
BT-549 breast
  TGI: > 100 µM
CAKI-1 renal
  TGI: > 100 µM
COLO 205 colon
  TGI: > 100 µM
K-562 leukemia
  TGI: > 100 µM
M14 melanoma
  TGI: > 100 µM
MALME-3M melanoma
  TGI: > 100 µM
MDA-MB-435
  TGI: > 100 µM
MOLT-4 leukemia
  TGI: > 100 µM
NCI-H226 lung
  TGI: > 100 µM
NCI-H460 lung
  TGI: > 100 µM
OVCAR-5 ovarian
  TGI: > 100 µM
RPMI-8226 leukemia
  TGI: > 100 µM
SK-MEL-28 melanoma
  TGI: > 100 µM
SN12C renal
  TGI: > 100 µM
SNB-19 CNS
  TGI: > 100 µM
SNB-75 CNS
  TGI: > 100 µM
U251 CNS
  TGI: > 100 µM
UACC-62 melanoma
  TGI: > 100 µM

## CN(C)S(=O)(=O)n1ccnc1
ACHN renal
  TGI: > 100 µM
BT-549 breast
  TGI: > 100 µM
CAKI-1 renal
  TGI: > 100 µM
COLO 205 colon
  TGI: > 100 µM
IGROV1 ovarian
  TGI: > 100 µM
K-562 leukemia
  TGI: > 100 µM
M14 melanoma
  TGI: > 100 µM
MALME-3M melanoma
  TGI: > 100 µM
MDA-MB-435
  TGI: > 100 µM
MOLT-4 leukemia
  TGI: > 100 µM
NCI-H226 lung
  TGI: > 100 µM
NCI-H460 lung
  TGI: > 100 µM
OVCAR-5 ovarian
  TGI: > 100 µM
RPMI-8226 leukemia
  TGI: > 100 µM
SK-MEL-28 melanoma
  TGI: > 100 µM
SN12C renal
  TGI: > 100 µM
SNB-19 CNS
  TGI: > 100 µM
SNB-75 CNS
  TGI: > 100 µM
U251 CNS
  TGI: > 100 µM

## Brc1ccc(-c2ccc(-c3ccc(-c4ccc(Br)s4)s3)s2)s1
ACHN renal
  TGI: > 100 µM
BT-549 breast
  TGI: > 100 µM
CAKI-1 renal
  TGI: > 100 µM
COLO 205 colon
  TGI: > 100 µM
IGROV1 ovarian
  TGI: > 100 µM
K-562 leukemia
  TGI: > 100 µM
M14 melanoma
  TGI: > 100 µM
MDA-MB-435
  TGI: > 100 µM
MOLT-4 leukemia
  TGI: > 100 µM
NCI-H226 lung
  TGI: > 100 µM
NCI-H460 lung
  TGI: > 100 µM
OVCAR-5 ovarian
  TGI: > 100 µM
RPMI-8226 leukemia
  TGI: > 100 µM
SK-MEL-28 melanoma
  TGI: > 100 µM
SN12C renal
  TGI: > 100 µM
SNB-75 CNS
  TGI: > 100 µM
U251 CNS
  TGI: > 100 µM
UACC-62 melanoma
  TGI: > 100 µM

## CC(=O)O[C@@]12[C@@H]3O[C@@]4(O)C[C@]5(C)[C@H]6C[C@@](C(C)C)(O[C@H]5c5ccoc5)O[C@H]1[C@]6(C4)O[C@]2(O)C(C)=CC3(C)C
ACHN renal
  TGI: > 100 µM
BT-549 breast
  TGI: > 100 µM
CAKI-1 renal
  TGI: > 100 µM
COLO 205 colon
  TGI: > 100 µM
IGROV1 ovarian
  TGI: > 100 µM
K-562 leukemia
  TGI: > 100 µM
M14 melanoma
  TGI: > 100 µM
MALME-3M melanoma
  TGI: > 100 µM
MDA-MB-435
  TGI: > 100 µM
MOLT-4 leukemia
  TGI: > 100 µM
NCI-H226 lung
  TGI: > 100 µM
OVCAR-5 ovarian
  TGI: > 100 µM
RPMI-8226 leukemia
  TGI: > 100 µM
SK-MEL-28 melanoma
  TGI: > 100 µM
SN12C renal
  TGI: > 100 µM
SNB-19 CNS
  TGI: > 100 µM
SNB-75 CNS
  TGI: > 100 µM
U251 CNS
  TGI: > 100 µM
UACC-62 melanoma
  TGI: > 100 µM

## CCN(CC)CCC(=O)c1ccc(Oc2ccc(C)cc2)cc1
ACHN renal
  TGI: 38.1 µM
BT-549 breast
  TGI: 32.7 µM
CAKI-1 renal
  TGI: 31.1 µM
COLO 205 colon
  TGI: 45.1 µM
IGROV1 ovarian
  TGI: 35.7 µM
K-562 leukemia
  TGI: > 100 µM
M14 melanoma
  TGI: 31.9 µM
MALME-3M melanoma
  TGI: 33.7 µM
MDA-MB-435
  TGI: 32 µM
MOLT-4 leukemia
  TGI: 60.7 µM
NCI-H226 lung
  TGI: 86.8 µM
OVCAR-5 ovarian
  TGI: 41 µM
RPMI-8226 leukemia
  TGI: 65.9 µM
SK-MEL-28 melanoma
  TGI: 30.5 µM
SN12C renal
  TGI: 30.4 µM
SNB-19 CNS
  TGI: 33.3 µM
SNB-75 CNS
  TGI: 35.7 µM
U251 CNS
  TGI: 30.7 µM
UACC-62 melanoma
  TGI: 31.3 µM

## CCC(C)[C@H]1C(=O)N=C(N)N1C(=O)OCc1ccccc1 (some centres not stated)
ACHN renal
  TGI: > 100 µM
BT-549 breast
  TGI: > 100 µM
CAKI-1 renal
  TGI: > 100 µM
COLO 205 colon
  TGI: > 100 µM
IGROV1 ovarian
  TGI: > 100 µM
K-562 leukemia
  TGI: > 100 µM
MALME-3M melanoma
  TGI: > 100 µM
MDA-MB-435
  TGI: > 100 µM
MOLT-4 leukemia
  TGI: > 100 µM
NCI-H226 lung
  TGI: > 100 µM
NCI-H460 lung
  TGI: > 100 µM
OVCAR-5 ovarian
  TGI: > 100 µM
RPMI-8226 leukemia
  TGI: > 100 µM
SK-MEL-28 melanoma
  TGI: > 100 µM
SN12C renal
  TGI: > 100 µM
SNB-19 CNS
  TGI: > 100 µM
SNB-75 CNS
  TGI: > 100 µM
U251 CNS
  TGI: > 100 µM
UACC-62 melanoma
  TGI: > 100 µM

## CC(C)=C1C(=O)C[C@]2(C)C/C=C(\C)CC/C=C(\C)CC[C@@H]12
ACHN renal
  TGI: 16.4 µM
BT-549 breast
  TGI: 24.8 µM
CAKI-1 renal
  TGI: 15.1 µM
COLO 205 colon
  TGI: 16.6 µM
IGROV1 ovarian
  TGI: 19.4 µM
K-562 leukemia
  TGI: 13.6 µM
M14 melanoma
  TGI: 15.8 µM
MDA-MB-435
  TGI: 20 µM
MOLT-4 leukemia
  TGI: 18.2 µM
NCI-H226 lung
  TGI: 16 µM
OVCAR-5 ovarian
  TGI: 32.1 µM
RPMI-8226 leukemia
  TGI: 36.9 µM
SK-MEL-28 melanoma
  TGI: 15.2 µM
SN12C renal
  TGI: 17.3 µM
SNB-19 CNS
  TGI: > 50 µM
SNB-75 CNS
  TGI: 20.2 µM
U251 CNS
  TGI: 14.8 µM
UACC-62 melanoma
  TGI: 15.3 µM

## CC(C)Cc1ccc(C(C)/C=C2\CCC(CN3CCOCC3)C2=O)cc1 (configuration not stated)
ACHN renal
  TGI: 29.4 µM
BT-549 breast
  TGI: 35.2 µM
CAKI-1 renal
  TGI: 33.5 µM
COLO 205 colon
  TGI: 48.4 µM
IGROV1 ovarian
  TGI: 19.8 µM
K-562 leukemia
  TGI: 12.4 µM
M14 melanoma
  TGI: 15.9 µM
MALME-3M melanoma
  TGI: 32 µM
MDA-MB-435
  TGI: 20.2 µM
MOLT-4 leukemia
  TGI: 11 µM
NCI-H226 lung
  TGI: 35.5 µM
NCI-H460 lung
  TGI: 33.8 µM
OVCAR-5 ovarian
  TGI: 35.9 µM
SK-MEL-28 melanoma
  TGI: 22.8 µM
SN12C renal
  TGI: 21.5 µM
SNB-19 CNS
  TGI: 21.4 µM
SNB-75 CNS
  TGI: 22.1 µM
U251 CNS
  TGI: 27.7 µM
UACC-62 melanoma
  TGI: 25.6 µM

## Nc1cc(OCc2ccccc2)c(OCc2ccccc2)cc1C=O
ACHN renal
  TGI: 93.5 µM
BT-549 breast
  TGI: 37.3 µM
COLO 205 colon
  TGI: 77.3 µM
IGROV1 ovarian
  TGI: > 100 µM
K-562 leukemia
  TGI: > 100 µM
MDA-MB-435
  TGI: > 100 µM
MOLT-4 leukemia
  TGI: > 100 µM
NCI-H226 lung
  TGI: > 100 µM
NCI-H460 lung
  TGI: 52.8 µM
OVCAR-5 ovarian
  TGI: > 100 µM
RPMI-8226 leukemia
  TGI: > 100 µM
SK-MEL-28 melanoma
  TGI: > 100 µM
SN12C renal
  TGI: > 100 µM
SNB-19 CNS
  TGI: > 100 µM
SNB-75 CNS
  TGI: > 100 µM
U251 CNS
  TGI: 93.9 µM

## CCOC(=O)CC/C(C)=N\n1c(Cc2ccc(Cl)cc2)n[nH]c1=O
ACHN renal
  TGI: > 100 µM
BT-549 breast
  TGI: > 100 µM
CAKI-1 renal
  TGI: > 100 µM
IGROV1 ovarian
  TGI: > 100 µM
K-562 leukemia
  TGI: > 100 µM
M14 melanoma
  TGI: > 100 µM
MALME-3M melanoma
  TGI: > 100 µM
MDA-MB-435
  TGI: > 100 µM
MOLT-4 leukemia
  TGI: > 100 µM
NCI-H226 lung
  TGI: > 100 µM
NCI-H460 lung
  TGI: > 100 µM
OVCAR-5 ovarian
  TGI: 55.5 µM
RPMI-8226 leukemia
  TGI: > 100 µM
SK-MEL-28 melanoma
  TGI: > 100 µM
SN12C renal
  TGI: > 100 µM
SNB-19 CNS
  TGI: > 100 µM
SNB-75 CNS
  TGI: > 100 µM
U251 CNS
  TGI: > 100 µM
UACC-62 melanoma
  TGI: > 100 µM

## CCC(C#N)N(Cc1ccc(CN(C(=O)c2ccccc2)C(C#N)CC)cc1)C(=O)c1ccccc1 (configuration not stated)
ACHN renal
  TGI: > 100 µM
BT-549 breast
  TGI: 72.7 µM
CAKI-1 renal
  TGI: > 100 µM
COLO 205 colon
  TGI: 31.3 µM
IGROV1 ovarian
  TGI: 61.8 µM
K-562 leukemia
  TGI: > 100 µM
M14 melanoma
  TGI: > 100 µM
MALME-3M melanoma
  TGI: 88.5 µM
MDA-MB-435
  TGI: 65.7 µM
MOLT-4 leukemia
  TGI: 65 µM
NCI-H226 lung
  TGI: 78.1 µM
OVCAR-5 ovarian
  TGI: > 100 µM
RPMI-8226 leukemia
  TGI: 42.7 µM
SN12C renal
  TGI: 69.3 µM
SNB-19 CNS
  TGI: > 100 µM
SNB-75 CNS
  TGI: 68.8 µM
U251 CNS
  TGI: 56.1 µM
UACC-62 melanoma
  TGI: 60.1 µM
